Assay results taken from US20170002057A1, “COMPOSITIONS CONTAINING FUSION PROTEIN OF ALBUMIN AND ANALOGS THEREOF, METHODS FOR MAKING AND USING THE SAME” (NAL PHARMACEUTICAL GROUP LIMITED, priority 2015, published 2017).

Key:
[1] = In vivo pharmacokinetic profile in rat after IV injection (ELISA)
Protocol: The rat was restrained manually at the designated time points, approximately 300 μL of blood sample was collected via jugular vein into EDTA-K2 tubes and subsequently centrifuged at 4° C. and 1500 g for 10 min to obtain plasma samples.
Standard curve was prepared by the following procedure. Duplicate standard points were prepared by serially diluting Free SST Stock (1 mg/mL) with diluent buffer to produce 5, 2.5, 1.25, 0.625, 0.313, 0.156, 0.078 and 0.039 ng/mL solutions.
Standard curve was prepared by the following procedure. Duplicate standard points were prepared by serially diluting SST fusion protein (2.42 mg/mL) with pooled rat plasma to produce 225, 112.5, 56.2, 28.1, 14.1, 7.03, 3.51 and 1.76 ng/mL solutions.
ELISA assay has been performed as described in Example 5-3.

[2] = molecular target: human somatostatin sst2 receptor (human) (UniProt P30874); test: cell-based or functional assay
[3] = rat, intravenous, SST 0.02 mg/kg, SST fusion protein 27.1 mg/kg

Chain of UniProt P30874 (P30874 whole entry, the tested form may be a part): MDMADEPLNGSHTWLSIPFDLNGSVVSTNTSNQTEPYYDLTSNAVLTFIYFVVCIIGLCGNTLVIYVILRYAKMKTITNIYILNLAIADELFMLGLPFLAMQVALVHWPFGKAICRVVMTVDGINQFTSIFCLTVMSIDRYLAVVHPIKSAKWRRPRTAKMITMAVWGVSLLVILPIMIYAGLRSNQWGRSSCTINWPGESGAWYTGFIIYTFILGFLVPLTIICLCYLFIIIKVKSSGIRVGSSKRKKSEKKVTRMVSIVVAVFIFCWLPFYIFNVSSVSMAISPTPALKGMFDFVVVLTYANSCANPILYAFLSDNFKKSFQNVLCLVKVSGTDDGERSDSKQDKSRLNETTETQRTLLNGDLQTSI

For `C[C@H](N)C(=O)NCC(=O)N[C@H]1CSSC[C@@H](C(=O)O)NC(=O)[C@H](CO)NC(=O)[C@H]([C@@H](C)O)NC(=O)[C@H](Cc2ccccc2)NC(=O)[C@H]([C@@H](C)O)NC(=O)[C@H](CCCCN)NC(=O)[C@H](Cc2c[nH]c3ccccc23)NC(=O)[C@H](Cc2ccccc2)NC(=O)[C@H](Cc2ccccc2)NC(=O)[C@H](CC(N)=O)NC(=O)[C@H](CCCCN)NC1=O` [Free SST], the “clinical signs after injection” value ([1]; male Sprague Dawley rats, tail vein injection, SST 0.02 mg/kg, SST fusion protein 27.1 mg/kg) was “no negative clinical signs were observed”, the level at 1 min ([1]; male, Sprague Dawley, in vivo, rat, IV 0.02 mg/kg, sampling time 1 min, read-out: Plasma SST concentration, Mean) was 7.13 ng/mL and the level at 2 min ([1]; male, Sprague Dawley, in vivo, rat, IV 0.02 mg/kg, sampling time 2 min, read-out: Plasma SST concentration, Mean) was 4.95 ng/mL. For the same compound, the level at 4 min ([1]; male, Sprague Dawley, in vivo, rat, IV 0.02 mg/kg, sampling time 4 min, read-out: Plasma SST concentration, Mean) was 4.3 ng/mL, the level at 0.1 h ([1]; male, Sprague Dawley, in vivo, rat, IV 0.02 mg/kg, sampling time 6 min, read-out: Plasma SST concentration, Mean) was 1.07 ng/mL and the level at 8 min ([1]; male, Sprague Dawley, in vivo, rat, IV 0.02 mg/kg, sampling time 8 min, read-out: Plasma SST concentration, Mean) was 2.95 ng/mL. It also gave an AUC(0-inf) ([1]; male, Sprague Dawley, in vivo, rat, intravenous, SST 0.02 mg/kg, SST fusion protein 27.1 mg/kg, read-out: AUC0-inf, Mean (converted)) of 0.73 ng·h/mL, an AUC(0-t) ([1]; male, Sprague Dawley, in vivo, rat, intravenous, SST 0.02 mg/kg, SST fusion protein 27.1 mg/kg, read-out: AUC0-t, Mean (converted)) of 0.483 ng·h/mL and a clearance ([1]; male, Sprague Dawley, in vivo, rat, intravenous, SST 0.02 mg/kg, SST fusion protein 27.1 mg/kg, read-out: CL, Mean) of 510 mL/min/kg. The Vd ([1]; male, Sprague Dawley, in vivo, rat, intravenous, SST 0.02 mg/kg, SST fusion protein 27.1 mg/kg, read-out: Vdss, Mean) was 2.19 L/kg, the “Plasma SST concentration, Mean” value ([1]; rat, IV 0.02 mg/kg, sampling time 0 min) was 0 ng/mL and the “AUMC0-inf, Mean” value [1, 3] was 173 mg · h^2/mL. For the same compound, the “AUMC0-t, Mean” value [1, 3] was 55.9 mg · h^2/mL and the “MRTIV, Mean” value [1, 3] was 4.1 h.

Octreotide (peptide) gave an EC50 values of the inhibition of cAMP production [2] of 41 pM.
